Measured values: patent publication US20150065466A1, “NOVEL DXR INHIBITORS FOR ANTIMICROBIAL THERAPY” (priority 2012, published 2015)
Like-named read-outs stand apart in the source and are kept apart here.

Legend:
TgDXR = TgDXR (Toxoplasma gondii, UniProt S8ESX0); assay type: biochemical, T. gondii
EcDXR [1] = biological target: T1, EcDXR (Escherichia coli, UniProt P45568); settings: cited from earlier work
PfDXR [2] = biological target: T2, PfDXR (Plasmodium falciparum, UniProt Q8IKG4); settings: Table 2, data from literature (footnote a); cited from earlier work
T2 sequence (Q8IKG4 75-488): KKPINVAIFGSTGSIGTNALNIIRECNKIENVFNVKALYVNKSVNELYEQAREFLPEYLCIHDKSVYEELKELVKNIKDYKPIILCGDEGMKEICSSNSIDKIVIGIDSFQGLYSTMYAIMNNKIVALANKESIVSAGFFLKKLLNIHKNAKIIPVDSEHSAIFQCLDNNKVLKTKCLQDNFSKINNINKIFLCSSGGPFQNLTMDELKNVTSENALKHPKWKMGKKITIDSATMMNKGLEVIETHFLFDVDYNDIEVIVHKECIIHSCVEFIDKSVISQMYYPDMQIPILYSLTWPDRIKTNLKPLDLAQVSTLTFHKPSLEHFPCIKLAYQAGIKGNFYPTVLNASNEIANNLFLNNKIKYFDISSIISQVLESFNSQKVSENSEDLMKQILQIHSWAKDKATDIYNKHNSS

P. falciparum 3D7 strain = assay: P. falciparum proliferation, DAPI fluorescence assay, 3D7 strain; assay type: cell-based; settings: read-out: IC50 against P. falciparum proliferation, 3D7 strain
P. falciparum Dd2 strain = assay: P. falciparum proliferation, DAPI fluorescence assay, Dd2 strain; assay type: cell-based; settings: read-out: IC50 against P. falciparum proliferation, Dd2 strain
T. gondii = settings: study from the Moreno group; cited from earlier work
[3] = tested on: T. gondii engineered to express the bacterial GlpT; settings: Nair et al., 2011; cited from earlier work
P. aeruginosa isolates = settings: Neu and Kamimura, 1981; cited from earlier work
[4] = cited from earlier work; for half life in plasma: human plasma, patients; for oral availability: human, in vivo
EcDXR [5] = biological target: T1, EcDXR; assay: recombinant EcDXR enzyme inhibition; assay type: biochemical, E. coli
PfDXR [6] = biological target: T2, PfDXR; assay: recombinant PfDXR enzyme inhibition; assay type: biochemical, P. falciparum
WI-38 (fibroblast) = assay: cytotoxicity, MTS assay, WI-38; assay type: cell-based, human; settings: at 300 μM, 48 h
Description: PfDXR inhibitors SYC-466, -467, -408, -409 were tested against three non-cancerous human cell lines, i.e., WI-38 (fibroblast), HEK293 (kidney) and Beas2B (lung epithelial), to evaluate the potential toxicity of these compounds, using an assay routinely perform (41). 1×10^5 cells are inoculated into each well of a 96-well plate and cultured in Dulbecco's Modified Eagle's Medium (DMEM) supplemented with 10% fetal bovine serum at 37° C. in a 5% CO2 atmosphere with 100% humidity overnight for cell attachment. After addition of compounds (from 0.1-300 μM), plates are incubated for 48 h after which cell viability are assessed by the [3-(4,5-dimethylthiazol-2-yl)-5-(3-carboxymethoxyphenyl)-2-(4-sulfophenyl)-2H-tetrazolium, inner salt (MTS) assay, using a commercially available kit (Promega). IC50s of each compound can be calculated from dose response curves.

Hela = assay: cytotoxicity, MTS assay, Hela; assay type: cell-based, human; settings: at 300 μM, 48 h
A549 = assay: cytotoxicity, MTS assay, A549; assay type: cell-based, human; settings: at 300 μM, 48 h
[7] = 100 nM TgDXR, 4 mM MgCl2, 100 μM DXP, pH 7.6, read-out: Ki TgDXR
[8] = Plasmodium falciparum, 3D7, Erythrocyte, 72 h
[9] = Plasmodium falciparum, DD2, Erythrocyte, 72 h
[10] = read-out: Ki against recombinant EcDXR
[11] = 3D7 (chloroquine sensitive), erythrocyte stage, 3 days
[12] = Dd2 (multidrug resistant), erythrocyte stage, 3 days
[13] = Table 1, read-out: Enzyme Ki PfDXR

T1 sequence (P45568 whole entry): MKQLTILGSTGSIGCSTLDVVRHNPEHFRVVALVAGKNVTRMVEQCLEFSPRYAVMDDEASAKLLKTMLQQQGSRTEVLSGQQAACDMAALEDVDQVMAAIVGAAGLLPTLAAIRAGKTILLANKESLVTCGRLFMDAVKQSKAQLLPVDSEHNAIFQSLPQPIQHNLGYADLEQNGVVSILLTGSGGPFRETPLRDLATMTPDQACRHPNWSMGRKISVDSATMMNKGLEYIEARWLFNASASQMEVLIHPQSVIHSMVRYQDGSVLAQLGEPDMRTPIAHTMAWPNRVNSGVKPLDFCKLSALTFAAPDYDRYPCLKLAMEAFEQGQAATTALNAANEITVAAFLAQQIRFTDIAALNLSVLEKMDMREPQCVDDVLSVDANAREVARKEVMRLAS
TgDXR, sequence (S8ESX0 entry or part of it): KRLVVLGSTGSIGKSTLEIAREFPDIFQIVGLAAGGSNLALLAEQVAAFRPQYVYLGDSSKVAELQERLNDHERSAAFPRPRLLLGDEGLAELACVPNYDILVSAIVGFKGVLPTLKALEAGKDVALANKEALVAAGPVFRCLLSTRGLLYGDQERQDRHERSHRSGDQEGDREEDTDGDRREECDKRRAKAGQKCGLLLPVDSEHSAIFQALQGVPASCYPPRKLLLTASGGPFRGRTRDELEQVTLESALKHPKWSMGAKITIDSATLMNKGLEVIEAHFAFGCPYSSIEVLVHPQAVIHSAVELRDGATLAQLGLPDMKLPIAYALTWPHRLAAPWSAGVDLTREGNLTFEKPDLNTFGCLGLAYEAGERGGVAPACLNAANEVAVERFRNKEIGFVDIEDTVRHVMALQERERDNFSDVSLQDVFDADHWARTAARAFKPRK

Molecule	Ki (TgDXR; [7]) [nM]	Ki (EcDXR [1]) [nM]	Ki (PfDXR [2]) [nM]	Ki (TgDXR; read-out: Ki against TgDXR) [nM]	cytotoxicity against growth of WI-38 cells (WI-38 (fibroblast))	cytotoxicity against growth of Hela cells (Hela)	cytotoxicity against growth of A549 cells (A549)	further results
O=P(O)(O)Cc1ccccn1 [Compound 3]	4100	2300	3300	–	–	–	–	Ki against TgDXR, in words (TgDXR): low μM range
O=CN(O)CCC(c1ccc(Cl)c(Cl)c1)P(=O)(O)O (stereo not drawn) [Compound 10]	77	58	15	77	–	–	–	–
CC(=O)N(O)CCC(c1ccc(Cl)c(Cl)c1)P(=O)(O)O (stereo not drawn) [Compound 11]	220	36	25	–	–	–	–	–
CC(=O)N(O)CCCP(=O)(O)O [FR900098]	48	–	11	48	–	–	–	Ki (EcDXR [1]; Table 2, data from literature (footnote a)): 19 nM
O=CN(O)CCCP(=O)(O)O [Fosmidomycin]	–	–	–	90	–	–	–	IC50 (P. falciparum 3D7 strain; [8]): 1170 nM; IC50 (P. falciparum Dd2 strain; [9]): 440 nM; activity on T. gondii parasite (T. gondii): no activity; killing of T. gondii expressing GlpT [3]: can effectively kill; MIC50 (inhibits 50% of P. aeruginosa isolates) (P. aeruginosa isolates): 6.25 µg/mL; half life in plasma [4]: 30 to 90 min; half life in plasma ([4]; listed as 1): ~60 min; oral availability [4]: low; oral availability ([4]; listed as 1): poor
CC(=O)N(O)CCC(c1cccnc1)P(=O)(O)O (stereo not drawn) [SYC-408]	970	42	–	–	essentially no cytotoxicity	essentially no cytotoxicity	essentially no cytotoxicity	Ki (EcDXR [5]; [10]): 42 nM; Ki (PfDXR [6]; listed as 5a, read-out: Ki against PfDXR): 1.9 nM; fold more active than fosmidomycin against PfDXR (PfDXR [6]; ratio of Ki values): ~10 fold; IC50 (P. falciparum 3D7 strain; [11]): 440 nM; IC50 (P. falciparum Dd2 strain; [12]): 310 nM
CC(=O)N(O)CCC(c1ccncc1)P(=O)(O)O (stereo not drawn) [SYC-409]	530	82	–	–	essentially no cytotoxicity	essentially no cytotoxicity	essentially no cytotoxicity	Ki (EcDXR [5]; [10]): 82 nM; Ki (PfDXR [6]; [13]): 13 nM; IC50 (P. falciparum 3D7 strain; [11]): 630 nM; IC50 (P. falciparum Dd2 strain; [12]): 460 nM
O=CN(O)CCC(c1cccnc1)P(=O)(O)O (stereo not drawn) [SYC-466]	–	–	13	55	essentially no cytotoxicity	essentially no cytotoxicity	essentially no cytotoxicity	Ki (EcDXR [5]; Table 1, read-out: Enzyme Ki EcDXR): 87 nM; Ki (PfDXR [6]): 13 nM; IC50 (P. falciparum 3D7 strain; [8]): 340 nM; IC50 (P. falciparum Dd2 strain; [9]): 180 nM
O=CN(O)CCC(c1ccncc1)P(=O)(O)O (stereo not drawn) [SYC-467]	79	35	–	79	essentially no cytotoxicity	essentially no cytotoxicity	essentially no cytotoxicity	Ki (EcDXR [5]; [10]): 35 nM; Ki (PfDXR [6]; [13]): 8.9 nM; IC50 (P. falciparum 3D7 strain; [11]): 180 nM; IC50 (P. falciparum Dd2 strain; [12]): 170 nM
CCN(CC)CCCC(C)Nc1ccnc2cc(Cl)ccc12 (stereo not drawn) [chloroquinone, reference compound]	–	–	–	–	–	–	–	IC50 (P. falciparum 3D7 strain; Plasmodium falciparum, 72 h, 3D7 (chloroquine sensitive), erythrocyte stage, 3 days): 28 nM; IC50 (P. falciparum Dd2 strain; Plasmodium falciparum, 72 h, Dd2 (multidrug resistant), erythrocyte stage, 3 days): 111 nM
gentamicin	–	–	–	–	–	–	–	MIC50 (inhibits 50% of P. aeruginosa isolates) (P. aeruginosa isolates): 12.5 µg/mL
